# Assay results from patent US10785978B2, “Control and repellency of biting flies, house flies, ticks, ants, fleas, biting midges, cockroaches, spiders and stink bugs” (priority 2012, dated 2020).
# Assays:
# Format in all cases: in vivo
# sand flies P. papatasi = assay: Sand fly bite test on treated human skin with K&D module; details: for percent biting, Treatment level 5%: 5% compound in isopropyl alcohol on human skin; for sand flies repelled: at 5%
# Description: Control against sand flies was determined by the following protocol as generally described in J. Med. Entomol. 43 (6), 1248-1252 (2006). Volunteers wearing short pants were seated. Using a skin-marking template and a washable-ink marker, skin areas represented by 3- by 4-cm floor opening of six cells of a K&D module were outlined on the outer, top and inner thigh position of each leg of the volunteers. The six treated cell rectangles each represented a random block, and each volunteer had three blocks on each of two thighs. All treatments against the sand flies P. papatasi, were pipetted onto a 4- by 5-cm rectangular area (so the area of skin covered by a treatment exceeded the template marks by 0.5 cm in every direction) of the subjects' skin with 55 ul of isopropyl alcohol/treatment containing 10% or 5% compound/ul isopropyl alcohol. Treating a slightly larger area ensured that the areas beneath each K&D module contained only treated skin. Skin treated with isopropyl alcohol alone served as control. In all tests adjacent cells of the K&D module were supplied with ten sand flies. The sand fly charged K&D module was positioned over the treated skin areas and the trap doors of the K&D module above the areas were opened. After a five minute skin exposure the trap doors were closed. The number of sand fly bites was recorded for each cell. The percent biting is the percent compared to the biting for the control which was taken as 100%.
# stable flies = assay: Stable fly probing on treated warmed blood-filled membranes; details: for Probes at 7% test compound: 7% in isopropyl alcohol on membrane; for Probes at 7% test compound / Probes at 15% test compound: twenty minutes, percent of control probes taken as 100%; for Probes at 15% test compound: 15% in isopropyl alcohol on membrane; for repellency compared with DEET: at the same concentrations (7% and 15%)
# Description: Five replicates of 100 mixed-sex stable flies each were placed in screened cages. The cages were placed in such a way that the stable flies had access to five warmed, blood-filled membrane walls. The membranes were treated with methyl dihydrojasmonate, gamma-dodecalactone, methyl apritone, or DEET® all at 7% and at 15% in isopropyl alcohol, or isopropyl alcohol as a control. There were five replicates tested with a positional rotation of the repellent at each replicate. Fresh batches of stable flies were used for each replicate. Thus each test sample was tested on each of the five wells, which allowed any positional bias to be eliminated. The number of stable flies probing each well was recorded at two minute intervals for twenty minutes. The total number of probes on each well were tallied at the end of the twenty minute observation period and the average percentage repellency was calculated for each compound. An analysis of variance was conducted to compare the average number of probes on each treatment membrane. The number of probes for the control was taken as the 100% baseline and the percentage for the test compounds is the percent for the number of probes for the test compound compared to the number of control probes.
# Pharaoh ants = assay: Pharaoh ant behaviour at treated-untreated interface on poster board; details: 50% in acetone; 5 minutes after release
# Description: Pharaoh ants were tested using the following protocol. The side of a 17″×23″ rectangular sheet of poster board was sprayed with the test sample or acetone, except for a region within a 6″ circle. The treated poster board was allowed to dry. Five worker ants were placed in the center of the 6″ untreated circle and allowed to wander outside the circle onto the treated surface. The behavior of the ants at the treated-untreated interface was recorded for 5 minutes after release. Test compounds were diluted in acetone.
# Black Widow spiders = assay: Black Widow spider choice test in half-treated tube shelters; details: 5% in isopropanol; location after 24 hours
# Description: Control against Black Widow spiders was determined using the following protocol. One test container containing two card stock tube shelters, one half treated with a test sample and the other half treated with isopropanol was prepared. A spider was introduced in the center of the tube. The spider was then given a choice to move to one end of the shelters. The following day, its location is recorded and compared to the results from a shelter containing untreated half-shelters.
# On the day of the test one of the two shelters was sprayed with the test sample solution using a 2 oz pump spray bottle. Only the surfaces that the spider will most likely contact were treated. Therefore, only the inside of one of the shelter tubes, including the end disc (spiders will not be able to access the outside part of the shelter) were sprayed. The total amount of product was weighed and recorded. The treated surface was allowed to dry for a minimum of ½ hour, or until solvent could not be detected by smell. At this time the shelter tubes were assembled.
# Card stock paper tube shelters were constructed from 2 half-letter sized sheets (5½″×8½″) of paper, rolled and taped together to form a short tube. One end of each was covered with a circle of card stock paper, while the other end was later taped to the open end of the other half sheet, forming one long tube. […] The solvent-treated half was labeled with a “C” on the inner and outer walls with a pencil or a pen with solvent resistant ink. Prior to forming the final tube shelter, a semi-circular hole was cut into one of the margins of each sheet such that, once the two tubes are taped together, the holes correspond to the top and at the junction of the tubes for introduction of the spiders.
# Twenty-five arenas were prepared in this manner for each test sample. There were five replicates of five spiders. Twenty-five additional control arenas were also prepared. They were prepared the same way, except that areas to be sprayed were sprayed with isopropanol only.
# Replicates of five spiders were selected for each test formulation and for the control. The specimens were visually examined for overall physical condition. […] The spiders were transferred directly into the holding vials using flexible forceps or with a little coaxing with an artist brush. Because of their cannibalistic tendencies, each vial contained only one spider. There they were held until the time for testing.
# At the test start the spiders were placed directly in the middle, through the opening at the top of the shelter tube, and the opening covered, with only one spider per arena. […] They were left alone for 24 hours, after which time their location within the arena was recorded. Spiders present inside the shelter treated with the test repellent were considered tolerant.
# [1] = test system: brown marmorated stink bugs (BMSB); assay: Brown marmorated stink bug repellency, treated vs. untreated filter paper arena
# Description: The two semi-circle filter papers were aligned together to completely cover the bottom of the test arena. Control arenas were also set up in a similar fashion except both were treated with acetone. Five replicates of 5 BMSB were then introduced into both the treated and control arenas. By releasing them in the center of the arena, the BMSB were presented with a choice of treated vs. untreated substrate (or untreated vs. untreated in the control arenas). The repellency of the BMSB was recorded at 24 hours post-treatment.
# [2] = five minute exposure, percent of control biting taken as 100%
smiles,measurement,setting,value
"CCC(C)=CCCC(C)=CCC1CCCC1=O (stereo not drawn) [Methyl apritone, methyl apritone]","percent biting, Treatment level 5%",sand flies P. papatasi; [2],9.9%^
same,"percent biting, Treatment level-10%","sand flies P. papatasi; 10% compound in isopropyl alcohol on human skin, five minute exposure, percent of control biting taken as 100%",0%
same,sand flies repelled,sand flies P. papatasi,90.1%
same,Probes at 7% test compound,stable flies,28.8%
same,Probes at 15% test compound,stable flies,7.4%
same,repellency compared with DEET,stable flies,repelled better than DEET®
same,% crossed without stopping,Pharaoh ants,66%
same,"% slowed, but crossed",Pharaoh ants,2%
same,% stopped at interface,Pharaoh ants,66%
same,% Repellency,Black Widow spiders,37.5%
"CCCCCC1C(=O)CCC1CC(=O)OC (stereo not drawn) [Methyl dihydrojasmonate, methyl dihydrojasmonate]","percent biting, Treatment level 5%",sand flies P. papatasi; [2],0%
same,sand flies repelled,sand flies P. papatasi,100%
same,Probes at 7% test compound,stable flies,4.5%
same,Probes at 15% test compound,stable flies,3.2%
same,repellency compared with DEET,stable flies,repelled better than DEET®
same,% crossed without stopping,Pharaoh ants,50%
same,"% slowed, but crossed",Pharaoh ants,20%
same,% stopped at interface,Pharaoh ants,32%
same,% Repellency,Black Widow spiders,87.5%
same,% Repellency at 24 hours,[1]; 2.5% in isopropyl alcohol,74%
same,% Repellency at 24 hours,[1]; 5% in isopropyl alcohol,100%
